Laboratory results taken from patent US6380181B1, “Synthetic catechol derivatives, method for production and use thereof” (priority 1996, dated 2002).
≈ marks a conversion by molar mass, not a printed value.

Key:
Assay type in all cases: cell-based
[1] = test system: Pseudomonas aeruginosa PAO 6609
Excerpt: (§1) In the indicator mutants, the synthesis of the respective siderophores, e.g. pyoverdin, pyochelin, enterobactin, aerobactin or yersiniabactin, or the biosynthesis of aromatic compounds, is blocked, or there is a lack of receptors for enterobactin, pyochelin or pyoverdin and for other important components for the bacterial transport of iron (e.g. the membrane proteins Cir, Fiu, FepA and TonB). Under conditions where there is a lack of iron, these mutants therefore cannot grow or can only grow to a very slight extent. In particular, the following indicator mutants were used: Pseudomonas aeruginosa PAO 6609, K 407, 690; E. coli AB 2847, Salmonella typhimurium enb-7, TA 270; Klebsiella pneumoniae KN 4401; Yersinia enterocolitica WAH; Proteus mirabilis 12 (wild); Proteus vulgaris 718 (wild) and Morganella morganii SBK3 (wild). […] The controls used were ferrioxamine E for the Pseudomonas strains, ferrioxamine G and enterobactin for the Salmonella strains, ferrichrome for the E. coli, Klebsiella and Y. enterocol. strains, and 3,4-dihydroxybenzylidene-2,4,6-trimethylaniline for Morganella morganii (see the above literature reference by R. Reissbrodt et al.).
(§2) The annotations + and (+) relate to non-specific promotion of growth.

[2] = test system: Proteus mirabilis 12 (wild)
Excerpt: as §1, §2

[3] = test system: Salmonella typhimurium enb-7
Excerpt: as §1, §2

[4] = test system: Yersinia enterocolitica WAH; settings: Y. enterocol. WAH
Excerpt: as §1, §2

E. coli AB 2847 = test system: E. coli AB 2847
Excerpt: as §1, §2

[5] = test system: Klebsiella pneumoniae KN 4401; settings: Klebsiella KN 4401
Excerpt: as §1, §2

[6] = test system: Pseudomonas aeruginosa K 407; settings: Pseudomonas aeruginosa K407
Excerpt: as §1, §2

[7] = test system: Proteus vulgaris 718 (wild)
Excerpt: as §1, §2

[8] = test system: Morganella morganii SBK3 (wild)
Excerpt: as §1, §2

[9] = test system: Pseudomonas aeruginosa 690
Excerpt: as §1, §2

[10] = test system: Salmonella typhimurium TA 2700
Excerpt: as §1, §2

[11] = test system: E. coli mutant BR185 tonB−
[12] = test system: Salmonella gallinarum ATCC 9184; settings: concentration 100 μg/ml; Salmonella galinarum ATCC 9184
[13] = test system: Pseudomonas aeruginosa NPS1 (plasmid-coded β-lactamase); settings: concentration 100 μg/ml; P. aeruginosa NPS 1
[14] = test system: Pseudomonas aeruginosa KW 799 WT; assay: Microdilution test (MIC); settings: P. aeruginosa KW 799/WT
Method: (§3) The minimum inhibiting concentrations (MICs) were determined for the following bacterial strains: Pseudomonas aeruginosa NCTC 10701, NCTC 10662, SG 137, ATCC 27853, KW 799 WT and KW 799/61, E. coli DCO, DC2 and ATCC 25922, Serratia marcescens SG 621; Salmonella gallinarum ATCC 9184, Klebsiella pneumoniae ATCC 10031 and SG 117.
(§4) With the test germs KW 799/WT and /61 of Pseudomonas and DCO and DC2 of E. coli, the effect of improved penetration capacity on the efficacy of the substances was investigated.

[15] = test system: Pseudomonas aeruginosa KW 799/61; assay: Microdilution test (MIC)
Method: as §3, §4

[16] = test system: Salmonella gallinarum ATCC 9184; assay: microbe, parasite or virus in culture; settings: Salmonella gallinarum ATCC9184
Method: as §3

[17] = test system: E. coli mutant PLB3268 ompF++; settings: E. coli mutant PLB3268 ompF++ (ompF super-expressed)
Excerpt: (§5) The efficacy against β-lactamase formers and against multi-resistant germs is therefore due to a new type of mechanism for overcoming the penetration resistance, by means of which the ratio of active ingredient to enzyme in the bacterial cell is influenced so that not all antibiotic molecules are inactivated before they reach their target.
PLB268: ompF- was super-expressed.

[18] = test system: Pseudomonas aeruginosa SG 137 (carbenicillin-resistant); assay: Agar diffusion test; settings: concentration 100 μg/ml; P. aeruginosa SG 137
[19] = test system: Pseudomonas aeruginosa ATCC 9027 (wild type); assay: Agar diffusion test; settings: concentration 100 μg/ml; P. aeruginosa ATCC 9027
E. coli DC2 = assay: microbe, parasite or virus in culture
Method: as §3, §4

[20] = test system: Pseudomonas aeruginosa NCTC 10701; assay: Agar diffusion test; settings: concentration 100 μg/ml; P. aeruginosa NCTC 10701
[21] = test system: Stenotrophomonas maltophilia IMET 10402; assay: Agar diffusion test; settings: concentration 100 μg/ml
[22] = test system: Pseudomonas aeruginosa Oxa6 (plasmid-coded β-lactamase); settings: concentration 100 μg/ml; P. aeruginosa OXA 6
[23] = test system: Klebsiella pneumoniae ATCC 10031; assay: Microdilution test (MIC)
Method: as §3

E. coli ATCC 25922 = assay: Microdilution test (MIC)
Method: as §3

[24] = test system: Serratia marcescens SG 621; assay: Microdilution test (MIC)
Method: as §3

[25] = test system: Pseudomonas aeruginosa ATCC 27853; assay: Microdilution test (MIC); settings: P. aeruginosa ATCC 27853
Method: as §3

[26] = test system: Pseudomonas aeruginosa SG 137; assay: Microdilution test (MIC); settings: P. aeruginosa SG 137
Method: as §3

[27] = test system: Klebsiella pneumoniae SG 117; assay: Microdilution test (MIC)
Method: as §3

[28] = test system: Pseudomonas aeruginosa NCTC 10701; assay: Microdilution test (MIC); settings: P. aeruginosa NCTC 10701
Method: as §3

[29] = test system: Klebsiella pneumoniae SG 117; assay: Agar diffusion test; settings: concentration 100 μg/ml
[30] = test system: E. coli DC2 (penetration mutant); settings: concentration 100 μg/ml
E. coli AB2847 tonB+ = test system: E. coli AB2847 tonB+
[31] = test system: Pseudomonas aeruginosa KW 799 WT (wild type); assay: Agar diffusion test; settings: concentration 100 μg/ml; P. aeruginosa KW799/WT
[32] = test system: Pseudomonas aeruginosa KW 799/61 (penetration mutant); settings: concentration 100 μg/ml; P. aeruginosa KW799/61
E. coli mutant KB5 ompC− = test system: E. coli mutant KB5 ompC−
Excerpt: as §5

E. coli mutant KB4 ompF− = test system: E. coli mutant KB4 ompF−
Excerpt: as §5

E. coli DC0 (wild type) = assay: Agar diffusion test; settings: concentration 100 μg/ml
[33] = test system: Pseudomonas aeruginosa NCTC 10662; assay: Agar diffusion test; settings: concentration 100 μg/ml; P. aeruginosa NCTC 10662
[34] = test system: Stenotrophomonas maltophilia GN 12873; assay: Agar diffusion test; settings: concentration 100 μg/ml

For O=C(O)c1ccc(O)c(N=Cc2cccc(O)c2O)c1 [Substance 3], the “Growth areas of siderophore indicator strains (diameter)” value (from here on “Growth areas”) [1] was 0 mm, the “Growth areas” value [2] was 18 mm and the “Growth areas” value [3] was 28 mm. The “Growth areas” value [4] was 0 mm, the “Growth areas” value (E. coli AB 2847) was 22 mm and the “Growth areas” value [5] was 32 mm. For the same molecule, the “Growth areas” value [6] was 0 mm, the “Growth areas” value [7] was 18 mm and the “Growth areas” value [8] was 20 mm. For the same molecule, the “Growth areas” value [9] was 0 mm and the “Growth areas” value [10] was 0 mm.
O=C(O)c1ccc(N=Cc2cccc(O)c2O)c(O)c1 [Substance 5] was tested, and the “Growth areas” value [1] was 0 mm, the “Growth areas” value [2] was 19 mm and the “Growth areas” value [3] was 0 mm. For the same molecule, the “Growth areas” value [4] was 0 mm, the “Growth areas” value (E. coli AB 2847) was 15 mm and the “Growth areas” value [5] was 0 mm. For the same molecule, the “Growth areas” value [6] was 0 mm, the “Growth areas” value [7] was 21 mm and the “Growth areas” value [8] was 21 mm. The “Growth areas” value [9] was 0 mm and the “Growth areas” value [10] was 0 mm.
In the case of O=C(O)c1cc(O)c(O)c(C=NNC(=O)c2cccc(O)c2O)c1 [Substance 13, 3-formyl-4,5-dihydroxybenzoic Acid-(2,3-dihydroxy-benzhydrazone)], the “Growth areas” value [1] is reported as 10 mm, the “Growth areas” value [2] is reported as 23 mm and the “Growth areas” value [3] is reported as 18 mm. The “Growth areas” value [4] was 10 mm, the “Growth areas” value [5] was 15 mm and the “Growth areas” value [6] was 11 mm. The “Growth areas” value [7] was 23 mm, the “Growth areas” value [8] was 24 mm and the “Growth areas” value [9] was 10 mm. The “Growth areas” value [10] was 23 mm.
For CC(=O)Oc1cccc(C(=O)N[C@@H](C)C(=O)N[C@@H](C(=O)N[C@@H]2C(=O)N3[C@@H]2SC(C)(C)[C@@H]3C(=O)O)c2ccccc2)c1OC(C)=O [Substance 27, N-[L-2-(2,3-Diacetoxybenzoylamino)-propionyl]-ampicillin], the “inhibition spot diameter in agar diffusion test” value [11] was 1 mm, the “inhibition spot diameter in the agar diffusion test” value [12] was 24 mm and the “inhibition spot diameter in the agar diffusion test” value [13] was 10 mm. For the same molecule, the “MIC values, microdilution test” value [14] was 0.78 µg/mL (≈ 1.22 µM), the “MIC values, microdilution test” value [15] was 0.2 µg/mL (≈ 0.312 µM) and the “MIC values, microdilution test” value [16] was 1.56 µg/mL (≈ 2.43 µM). The “inhibition spot diameter in agar diffusion test” value [17] was 14 mm, the “inhibition spot diameter in the agar diffusion test” value [18] was 22 mm and the “inhibition spot diameter in the agar diffusion test” value [19] was 19 mm. For the same molecule, the “MIC values, microdilution test” value (E. coli DC2) was 0.4 µg/mL (≈ 0.624 µM), the “inhibition spot diameter in the agar diffusion test” value [20] was 0 mm and the “inhibition spot diameter in the agar diffusion test” value [21] was 29 mm. The “inhibition spot diameter in the agar diffusion test” value [22] was 12 mm, the “MIC values, microdilution test” value [23] was 0.4 µg/mL (≈ 0.624 µM) and the “MIC values, microdilution test” value (E. coli ATCC 25922) was 6.25 µg/mL (≈ 9.76 µM). For the same molecule, the “MIC values, microdilution test” value [24] was 50 µg/mL (≈ 78 µM), the “MIC values, microdilution test” value [25] was 6.25 µg/mL (≈ 9.76 µM) and the “MIC values, microdilution test” value [26] was 3.12 µg/mL (≈ 4.87 µM). For the same molecule, the “MIC values, microdilution test” value [27] was 50 µg/mL (≈ 78 µM), the “MIC values, microdilution test” value [28] was 0.4 µg/mL (≈ 0.624 µM) and the “inhibition spot diameter in the agar diffusion test” value [29] was 17 mm. The “inhibition spot diameter in the agar diffusion test” value [30] was 30 mm, the “inhibition spot diameter in agar diffusion test” value (E. coli AB2847 tonB+) was 7 mm and the “inhibition spot diameter in the agar diffusion test” value [31] was 30 mm. For the same molecule, the “inhibition spot diameter in the agar diffusion test” value [32] was 37 mm, the “inhibition spot diameter in agar diffusion test” value (E. coli mutant KB5 ompC−) was 7.5 mm and the “inhibition spot diameter in agar diffusion test” value (E. coli mutant KB4 ompF−) was 8.5 mm. The “inhibition spot diameter in the agar diffusion test” value (E. coli DC0 (wild type)) was 21 mm, the “inhibition spot diameter in the agar diffusion test” value [33] was 16 mm and the “inhibition spot diameter in the agar diffusion test” value [34] was 22 mm.
CC(=O)Oc1cccc(C(=O)Nc2ccccc2C(=O)N[C@@H](C(=O)N[C@@H]2C(=O)N3[C@@H]2SC(C)(C)[C@@H]3C(=O)O)c2ccccc2)c1OC(C)=O [Substance 28, N-[2-(2,3-Diacetoxybenzoylamino)-benzoyl]-ampicillin] was tested, and the “inhibition spot diameter in agar diffusion test” value [11] was 0 mm, the “inhibition spot diameter in the agar diffusion test” value [13] was 18 mm and the “MIC values, microdilution test” value [14] was 1.56 µg/mL (≈ 2.27 µM). The “MIC values, microdilution test” value [15] was 0.4 µg/mL (≈ 0.581 µM), the “MIC values, microdilution test” value [16] was 1.56 µg/mL (≈ 2.27 µM) and the “inhibition spot diameter in agar diffusion test” value [17] was 13 mm. The “inhibition spot diameter in the agar diffusion test” value [18] was 20 mm, the “inhibition spot diameter in the agar diffusion test” value [19] was 18 mm and the “MIC values, microdilution test” value (E. coli DC2) was 0.4 µg/mL (≈ 0.581 µM). The “inhibition spot diameter in the agar diffusion test” value [21] was 24 mm, the “inhibition spot diameter in the agar diffusion test” value [22] was 19 mm and the “MIC values, microdilution test” value [24] was 6.25 µg/mL (≈ 9.07 µM). The “MIC values, microdilution test” value [26] was 1.56 µg/mL (≈ 2.27 µM), the “MIC values, microdilution test” value [27] was 25 µg/mL (≈ 36.3 µM) and the “MIC values, microdilution test” value [28] was 0.78 µg/mL (≈ 1.13 µM). The “inhibition spot diameter in the agar diffusion test” value [29] was 17 mm, the “inhibition spot diameter in the agar diffusion test” value [30] was 27 mm and the “inhibition spot diameter in agar diffusion test” value (E. coli AB2847 tonB+) was 8.5 mm. The “inhibition spot diameter in the agar diffusion test” value [31] was 27 mm, the “inhibition spot diameter in the agar diffusion test” value [32] was 31 mm and the “inhibition spot diameter in agar diffusion test” value (E. coli mutant KB5 ompC−) was 11 mm. For the same molecule, the “inhibition spot diameter in agar diffusion test” value (E. coli mutant KB4 ompF−) was 11.5 mm, the “inhibition spot diameter in the agar diffusion test” value (E. coli DC0 (wild type)) was 23 mm and the “inhibition spot diameter in the agar diffusion test” value [33] was 17 mm. For the same molecule, the “inhibition spot diameter in the agar diffusion test” value [34] was 20 mm.
